Source: ChEMBL document CHEMBL1158315, “Sclerotiamide: a new member of the paraherquamide class with potent antiinsectan activity from the sclerotia of Aspergillus sclerotiorum” (1996)
The source made the active and inactive calls. No cut-off for these calls is given here.

Columns and labels:
Helicoverpa zea [1] = experiment: Insecticidal activity against corn ear worm first instar larvae assessed as cuticle/exoskeleton rupture in dead larvae at 200 ppm administered with standard test diet; assay type: functional, organism-based
Helicoverpa zea [2] = experiment: Insecticidal activity against corn ear worm first instar larvae assessed as blackened in dead larvae at 200 ppm administered with standard test diet; assay type: functional, organism-based
Helicoverpa zea [3] = experiment: Insecticidal activity against corn ear worm first instar larvae assessed as reduction in growth at 200 ppm administered with standard test diet relative to control; assay type: functional; parameters: scale not given: the % may be the effect or the level left
[4] = Cytotoxicity against human NCI60 cells; assay type: functional
Carpophilus = experiment: Antifeedant activity against Carpophilus hemipterus adult assessed as reduction in feeding rate at 100 ppm; assay type: functional
Helicoverpa zea [5] = experiment: Insecticidal activity against corn ear worm first instar larvae assessed as laterally shriveled in dead larvae at 200 ppm administered with standard test diet; assay type: functional, organism-based
Helicoverpa zea [6] = experiment: Insecticidal activity against corn ear worm first instar larvae assessed as bloating of area just prior to rear body in surviving larvae at 200 ppm administered with standard test diet; assay type: functional, organism-based
Helicoverpa zea [7] = experiment: Insecticidal activity against corn ear worm first instar larvae assessed as mortality at 200 ppm administered with standard test diet; assay type: functional

## CC1(C)C=Cc2c(ccc3c2NC(=O)[C@@]32[C@H](O)[C@@]34NC(=O)[C@]5(CCCN5C3=O)C[C@H]4C2(C)C)O1 [SCLEROTIAMIDE]
Helicoverpa zea [1]
  Activity: Active
Helicoverpa zea [2]
  Activity: Active
Helicoverpa zea [3]
  Activity: 98%
[4]
  Activity: 44%
Carpophilus
  GI50: > 25 µg/mL
Helicoverpa zea [5]
  Activity: Active
Helicoverpa zea [6]
  Activity: Active
Helicoverpa zea [7]
  Activity: 46%
